Source: publication PMC4277619, “Design, Synthesis and Cytotoxicity Evaluationof New 1,2-diaryl-4, 5, 6, 7-Tetrahydro-1H-benzo[d] Imidazolesas Tubulin Inhibitors” (Iranian Journal of Pharmaceutical Research : IJPR, 2015)

Columns and labels:
MCF-7 = assay: MTT assay, cytotoxicity against MCF-7 breast cancer cells; assay type: cell-based, human; details: for IC50: Homo sapiens, MCF7, MCF-7 cells, 24 h incubation, MTT; for SI MCF-7: selectivity index = IC50 Fibroblast / IC50 MCF-7
Method: (§1) Fibroblast, MCF7 (human breast cancer), HEPG2 (human liver carcinoma), A549 (human lung cancer) and T47D (human breast cancer) cell lines were purchased from Pasteur Institute, Tehran, Iran. The cells were grown in RPMI1640 medium at 37 °C under 5% CO2 supplemented with 10% heat inactivated fetal bovine serum (FBS), 100 U/mL penicillin and 100 µg/mL streptomycin. Cell viability was evaluated using MTT method which is based on the reduction of 3-(4,5-dimethylthiazol-2-yl)-2,5-diphenyltetrazolium bromide (MTT) dye to purple formazan crystals by mitochondrial succinate dehydrogenase enzyme in living cells. The cells were seeded into 96-well plates at a concentration of 6000 cells/well and allowed to incubate for 24 h. The medium was then discarded and different concentrations of the test compounds dissolved in complete medium, were added to each well. After further incubation for 24 h at 37 °C, the medium was aspirated and 100 µL MTT (2 mg/mL) was added to the wells and incubated for 3 h at 37 °C. The produced formazan crystals were dissolved in 100 µL of DMSO. Plates were incubated for 20 min at 37 °C and the optical densities were read at 570 nm with a reference wavelength of 630 nm as background using a spectrophotometer plate reader (Infinite® M200, TECAN). Colchicine was used as positive control and DMSO as the solvent of the test compounds and its final concentration was less than 0.2%. IC50 was calculated by calibration curve using Prism software. All the tests were performed in triplicates.

HEPG2 = assay: MTT assay, cytotoxicity against HEPG2 liver carcinoma cells; assay type: cell-based, human; details: for IC50: Homo sapiens, HEPG2 cells, 24 h incubation, MTT; for SI HEPG2: selectivity index = IC50 Fibroblast / IC50 HEPG2
Method: as §1

T47D = assay: MTT assay, cytotoxicity against T47D breast cancer cells; assay type: cell-based, human; details: for IC50: Homo sapiens, T47D cells, 24 h incubation, MTT; for SI T47D: selectivity index = IC50 Fibroblast / IC50 T47D
Method: as §1

A549 = assay: MTT assay, cytotoxicity against A549 lung cancer cells; assay type: cell-based, human; details: for IC50: Homo sapiens, A549 cells, 24 h incubation, MTT; for SI A549: selectivity index = IC50 Fibroblast / IC50 A549
Method: as §1

Fibroblast = assay: MTT assay, cytotoxicity against normal fibroblast cells; assay type: cell-based; details: Homo sapiens, 24 h incubation
Method: as §1

Structure (SMILES): COc1cc(-c2nc3c(n2-c2ccc(O)cc2)CCCC3)cc(OC)c1OC [Compound 7c, 4-[2-(3,4,5-Trimethoxyphenyl)-4,5,6,7-tetrahydro-1H-benzoimidazole-1-yl]-phenol]
- IC50 (MCF-7): > 100 µM
- melting point: 259 to 260 °C
- IC50 (HEPG2): 19.6 µM
- SI HEPG2 (HEPG2): 4.11
- IC50 (T47D): 41.2 µM
- SI T47D (T47D): 2
- IC50 (A549): > 100 µM
- IC50 (Fibroblast): 80.8 µM

Structure (SMILES): COc1cc(-c2nc3c(n2-c2ccc(F)cc2)CCCC3)cc(OC)c1OC [Compound 7d, 1-(4-Fluorophenyl)-2-(3,4,5-trimethoxyphenyl)-4,5,6,7-tetrahydro-1H-benzoimidazole]
- IC50 (MCF-7): 62.3 µM
- SI MCF-7 (MCF-7): 0.95
- melting point: 152 to 154 °C
- IC50 (HEPG2): 19.4 µM
- SI HEPG2 (HEPG2): 3.06
- IC50 (T47D): 30 µM
- SI T47D (T47D): 2
- IC50 (A549): 86.5 µM
- SI A549 (A549): 0.68
- IC50 (Fibroblast): 59.5 µM

Structure (SMILES): COc1cccc(-n2c(-c3cc(OC)c(OC)c(OC)c3)nc3c2CCCC3)c1 [Compound 7b, 1-(3-Methoxyphenyl)-2-(3,4,5-trimethoxyphenyl)-4,5,6,7-tetrahydro-1H-benzoimidazole]
- IC50 (MCF-7): > 100 µM
- IC50 (HEPG2): > 100 µM
- IC50 (T47D): > 100 µM
- IC50 (A549): 30.4 µM
- IC50 (Fibroblast): > 100 µM

Structure (SMILES): COc1cc(-c2nc3c(n2-c2ccc(Cl)cc2)CCCC3)cc(OC)c1OC [Compound 7e, 1-(4-Chlorophenyl)-2-(3,4,5-trimethoxyphenyl)-4,5,6,7-tetrahydro-1H-benzoimidazole]
- IC50 (MCF-7): 36.4 µM
- SI MCF-7 (MCF-7): 1.48
- melting point: 157 to 158 °C
- IC50 (HEPG2): 15.6 µM
- SI HEPG2 (HEPG2): 3.46
- IC50 (T47D): 34.5 µM
- SI T47D (T47D): 1.6
- IC50 (A549): 87 µM
- SI A549 (A549): 0.62
- IC50 (Fibroblast): 54 µM

Structure (SMILES): COc1ccc(-n2c(-c3cc(OC)c(OC)c(OC)c3)nc3c2CCCC3)cc1 [Compound 7a, 1-(4-Methoxyphenyl)-2-(3,4,5-trimethoxyphenyl)-4,5,6,7-tetrahydro-1H-benzoimidazole]
- IC50 (MCF-7): 54.8 µM
- SI MCF-7 (MCF-7): 0.52
- melting point: 110 to 111 °C
- IC50 (HEPG2): 22.5 µM
- SI HEPG2 (HEPG2): 1.26
- IC50 (T47D): 41.1 µM
- SI T47D (T47D): 0.69
- IC50 (A549): 83.6 µM
- SI A549 (A549): 0.34
- IC50 (Fibroblast): 28.5 µM

Structure (SMILES): COc1cc(-c2nc3c(n2-c2cccc(Cl)c2)CCCC3)cc(OC)c1OC [Compound 7f, 1-(3-Chlorophenyl)-2-(3,4,5-trimethoxyphenyl)-4,5,6,7-tetrahydro-1H-benzoimidazole]
- IC50 (MCF-7): 77.9 µM
- SI MCF-7 (MCF-7): 1.12
- IC50 (HEPG2): 43.8 µM
- SI HEPG2 (HEPG2): 2
- IC50 (T47D): 58.6 µM
- SI T47D (T47D): 1.5
- IC50 (A549): > 100 µM
- IC50 (Fibroblast): 87.3 µM
